Experimental data published in patent US6376510B1, “Neuromuscular relaxants” (Newlaxant LLC, priority 1997, dated 2002).
Like-named read-outs stand apart in the source and are kept apart here.

Experiments:
[1] = test system: anesthetized rats (evoked responses of anterior tibial muscle); assay: In vivo neuromuscular block and cardiovascular side effects, anesthetized rat (Example 8, Table 3); settings: for Onset: time to 80-85% neuromuscular block
How it was run: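 Pentobarbital-anesthetized (i.p.), ventilated adult male rats given saline-dissolved agents i.v.; anterior tibial EMG responses to supramaximal single or train-of-four sciatic/peroneal stimuli, plus 0.1 or 1 Hz stimulation. Doses for 50%, 80%, 90% block derived. Onset: minutes to 80-85% block; RI: 25-75% spontaneous recovery; vagal block, heart rate and blood pressure changes (%) at 80-85% blocking dose.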

rabbits = assay: In vivo neuromuscular block and cardiovascular side effects, rabbit (Example 8, Table 7); settings: for ED50: intravenous dose causing 50% neuromuscular block; for RI (recovery index): spontaneous recovery, 25-75% neuromuscular response; for Onset: time to 80-85% neuromuscular block
anesthetized monkeys = assay: In vivo neuromuscular block and cardiovascular side effects, monkey (Example 8, Table 6); settings: for ED50: intravenous dose causing 50% neuromuscular block; for RI (recovery index): spontaneous recovery, 25-75% neuromuscular response; for Onset: time to 80-85% neuromuscular block
Text: Both electromyographic and mechanomyographic responses can be quantified.
The techniques described under a) and b) were employed in other species as needed with the modification that juvenile pigs were initially anesthetized with inhalation of halothane (Table 5) and monkeys were initially sedated with intramuscular ketamine injections prior to inducing and maintaining general anesthesia using pentobarbital and propofol administered intravenously (Table 6).

[2] = test system: anesthetized cats (evoked responses of anterior tibial muscle); assay: animal or person; settings: for ΔBP (change in arterial blood pressure) / ΔH (change in heart rate) / VB (vagal block): in vivo; for RI (recovery index): spontaneous recovery, 25-75% neuromuscular response; for Onset: time to 80-85% neuromuscular block
Text: a) Adult, male albino rats were anesthetized with pentobarbital injected intraperitoneally. The trachea was cannulated for artificial respiration via a small animal respirator. The carotid artery was cannulated for recording blood pressure via a transducer and heart rate by a cardiotachograph on a polygraph. One external jugular vein was cannulated for i.v. drug administration. Neuromuscular function was monitored by electromyography, recording evoked responses from the anterior tibial muscle as a result of supramaximal nerve stimuli consisting of single or “train-of-four” rectangular pulses of 0.1-0.2 msec duration every 10-12 seconds, delivered to the sciatic or common peroneal nerve by a laboratory nerve stimulator. Another mode of stimulation included repeated single stimuli delivered at 0.1 Hz or 1 Hz. […] The agents were dissolved in physiologic saline and injected intravenously at appropriate time intervals. The intensity, onset, and duration of neuromuscular block and its type were determined with each agent. Through administering several doses, the doses corresponding to 50%, 80% and 90% neuromuscular block were determined. All agents were compared with selected standard neuromuscular blocking compounds, e.g. succinylcholine, pancuronium, mivacurium, or rocuronium.
(§1) Onset=time in minutes to 80-85% neuromuscular block.
(§2) RI=recovery index, minutes, spontaneous recovery, 25-75% neuromuscular response.
(§3) VB=vagal block, %, at 80-85% neuromuscular blocking dose.
ΔHR=change in heart rate, %, at 80-85% neuromuscular blocking dose.
ΔBP=change in arterial blood pressure, %, at 80-85% neuromuscular blocking dose.
b) Adult cats were anesthetized with a mixture of 70 mg/kg alpha chloralose and 0.5 g/kg ethylurethane intraperitoneally. One thigh was fixed in a vertical position by means of a pin at the lower end of the femur. Needle electrodes were placed on the sciatic or the common peroneal nerve. A tendon of the anterior tibial muscle was attached to a force transducer and the muscle responses evoked, as described under a), were recorded. Both electromyographic and mechanomyographic responses can be quantified. Blood pressure and heart rate changes were recorded from appropriately cannulated arteries via a blood pressure transducer and cardiotachograph.

[3] = test system: anesthetized rats (evoked responses of anterior tibial muscle); assay: Muscle relaxant (neuromuscular blocking) properties, anesthetized rat (Example 9, Table 9); settings: rat
Text: The data on muscle relaxant action were obtained on anesthetized rats, and when indicated, also on juvenile pigs
Adult, male albino rats were anesthetized with pentobarbital injected intraperitoneally. Juvenile, Duroc pigs 9-12 kg body weight were anesthetized with Chloralose Nembutal sodium mixture intraperitoneally after deep sedation with inhaled halothane. The trachea was cannulated for artificial respiration via a small animal respirator. The carotid artery was cannulated for recording blood pressure via a transducer and heart rate by a cardiotachograph on a polygraph. One external jugular vein was cannulated for i.v. drug administration. Neuromuscular function was monitored by electromyography, recording evoked responses from the anterior tibial muscle as a result of supramaximal nerve stimuli consisting of single or “train-of-four” rectangular pulses of 0.1-0.2 msec duration every 10-12 seconds, delivered to the sciatic or common peroneal nerve by a laboratory nerve stimulator. Another mode of stimulation included repeated single stimuli delivered at 0.1 Hz or 1 Hz. […] The agents were dissolved in physiologic saline and injected intravenously at appropriate time intervals. The intensity, onset, and duration of neuromuscular block and its type were determined with each agent. Through administering several doses, the doses corresponding to 50%, 80% and 90% neuromuscular block were determined. All agents were compared with selected standard neuromuscular blocking compounds, e.g., rocuronium.
as §1, §2, §3
HR=change in heart rate, %, at 80-85% neuromuscular blocking dose.
BP=change in arterial blood pressure, %, at 80-85% neuromuscular blocking dose.

[4] = test system: anesthetized juvenile pigs; assay: animal or person; assay type: in vivo; settings: pig; for ED50: intravenous dose causing 50% neuromuscular block; for VB (vagal block) / ΔBP (change in arterial blood pressure) / ΔH (change in heart rate): in vivo; for RI (recovery index): spontaneous recovery, 25-75% neuromuscular response; for Onset: time to 80-85% neuromuscular block
How it was run: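 Electromyographic and mechanomyographic responses quantified. Monkeys sedated with intramuscular ketamine, then general anesthesia with intravenous pentobarbital and propofol; juvenile pigs induced with inhaled halothane.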

[5] = Oryctolagus cuniculus, read-out: ED50
[6] = at 80-85% neuromuscular blocking dose
[7] = rat, intravenous dose causing 50% neuromuscular block
[8] = rat, spontaneous recovery, 25-75% neuromuscular response
[9] = cat, intravenous dose causing 50% neuromuscular block
[10] = rat, at 80-85% neuromuscular blocking dose

SMILES	Onset ([1]; rat)	RI (recovery index) (rabbits)	Onset (rabbits)	RI (recovery index) (anesthetized monkeys)	Onset (anesthetized monkeys)	RI (recovery index) ([2]; cat)	Onset ([2]; cat)	ED50 [1, 7]	RI (recovery index) [1, 8]	VB (vagal block) [4]	ΔBP (change in arterial blood pressure) [4]	ΔH (change in heart rate) [4]	RI (recovery index) [4]	Onset [4]	ΔBP (change in arterial blood pressure) (rabbits; in vivo)	ΔH (change in heart rate) (rabbits; in vivo)	ΔBP (change in arterial blood pressure) (anesthetized monkeys; in vivo)	ΔH (change in heart rate) (anesthetized monkeys; in vivo)	ED50 [2, 9]	ED50 [4]	other results
COc1ccc(CC2c3cc(OC)c(OC)cc3CC[N+]2(C)CCC(=O)OCCCCCOC(=O)CC[N+]2(C)CCc3cc(OC)c(OC)cc3C2Cc2ccc(OC)c(OC)c2)cc1OC (stereo not drawn) [Atracurium, reference compound]	1.5 min	5.7 min	2.7 min	7.5 min	3 min	4.8 min	2.7 min														ED50 ([1]; Rattus norvegicus, iv): 320 µg/kg; VB (vagal block) ([1]; male, rat, in vivo): 0%; ΔBP (change in arterial blood pressure) ([1]; male, rat, in vivo): 0%; ΔH (change in heart rate) ([1]; male, rat, in vivo): 0%; RI (recovery index) ([1]; rat, in vivo): 2.9 min; ED50 (rabbits; [5]): 30 µg/kg; ΔBP (change in arterial blood pressure) (rabbits; [6]): 0%; ΔH (change in heart rate) (rabbits; [6]): 0%; ED50 (anesthetized monkeys; Primates, read-out: ED50): 186 µg/kg; ΔBP (change in arterial blood pressure) (anesthetized monkeys; [6]): 0%; ΔH (change in heart rate) (anesthetized monkeys; [6]): 0%; ED50 ([2]; Felis catus, iv): 68 µg/kg; ΔBP (change in arterial blood pressure) ([2]; cat): 0%; ΔH (change in heart rate) ([2]; cat): 0%
CC(=O)Oc1ccc(C[N+](C)(C)C2CCC(OC(=O)/C=C/C(=O)OC3CCC([N+](C)(C)Cc4ccc(OC(C)=O)c(OC(C)=O)c4)CC3)CC2)cc1OC(C)=O.[Br-].[Br-] (stereo not drawn) [Bis[4-dimethylaminocyclohexyl]fumarate bis(3,4-diacetoxybenzyl bromide)]																					% VB at ED80 nmb (vagal block) ([3]; in vivo): 65 (18) %; BP (change in arterial blood pressure) ([3]; in vivo): −4 (3) %; HR (change in heart rate) ([3]; in vivo): +6 (3) %; ED50 ([3]; intravenous dose causing 50% neuromuscular block, spread in brackets): 2125 (475) μg/kg; RI (recovery index) ([3]; spontaneous recovery, 25-75% neuromuscular response): 1.5 (0.1) min; Onset ([3]; time to 80-85% neuromuscular block): 1.3 (0.1) min
COc1cc2c(cc1OC)[C@@H](Cc1cc(OC)c(OC)c(OC)c1)[N+](C)(CCCOC(=O)CC/C=C/CCC(=O)OCCC[N+]1(C)CCc3cc(OC)c(OC)cc3[C@H]1Cc1cc(OC)c(OC)c(OC)c1)CC2 (stereo partly drawn) [Mivacurium, reference compound]	1.8 min	3.9 min	2.8 min	2.4 min	1.9 min	5 min	3.5 min	140 µg/kg	3.9 min	17%	0%	0%	3.6 min	1.5 min	0%	0%	0%	0%	25 µg/kg		VB (vagal block) ([1]; male, rat, in vivo): 0%; ΔBP (change in arterial blood pressure) ([1]; male, rat, in vivo): 0%; ΔH (change in heart rate) ([1]; male, rat, in vivo): 0%; ED50 ([4]; Sus scrofa, read-out: ED50): 135 µg/kg; ED50 (rabbits; [5]): 20 µg/kg; ED50 (anesthetized monkeys; Primates, read-out: ED50): 34 µg/kg; ΔBP (change in arterial blood pressure) ([2]; cat): 0%; ΔH (change in heart rate) ([2]; cat): 0%
CC(=O)Oc1ccc(C[N+]2(C)C3CCCC2CC(OC(=O)CCCCC(=O)OC2CC4CCCC(C2)[N+]4(C)Cc2ccc(OC(C)=O)c(OC(C)=O)c2)C3)cc1OC(C)=O.[Br-].[Br-] (stereo not drawn) [bis[N-(3,4-diacetoxybenzyl)granataninium-3-yl]adipate dibromide]	0.5 min	0.5 min	0.68 min	0.4 min	0.8 min	0.5 min	0.7 min	140 µg/kg	0.4 min	51%	0%	0%	0.9 min	0.7 min	0%	0%	0%	0%	400 µg/kg	140 µg/kg	VB (vagal block) ([1]; rat, in vivo): 5%; ΔBP (change in arterial blood pressure) ([1]; rat, in vivo): 0%; ΔH (change in heart rate) ([1]; rat, in vivo): 0%; ED50 (rabbits): 167 µg/kg; ED50 (anesthetized monkeys): 85 µg/kg; VB (vagal block) [2]: 70%; ΔBP (change in arterial blood pressure) [2]: −40%; ΔH (change in heart rate) [2]: 0%
CC(=O)Oc1ccc(C[N+]2(C)C3CCCC2CC(OC(=O)CCCCCC(=O)OC2CC4CCCC(C2)[N+]4(C)Cc2ccc(OC(C)=O)c(OC(C)=O)c2)C3)cc1OC(C)=O.[Br-].[Br-] (stereo not drawn) [bis[N-(3,4-diacetoxybenzyl)granataninium-3-yl]pimelate dibromide]	0.45 min	0.6 min	0.72 min	0.55 min	1.2 min			175 µg/kg	0.4 min	48%	0%	0%	1 min	0.7 min	0%	0%	0%	0%		193 µg/kg	VB (vagal block) ([1]; rat, in vivo): 0%; ΔBP (change in arterial blood pressure) ([1]; rat, in vivo): 0%; ΔH (change in heart rate) ([1]; rat, in vivo): 0%; ED50 (rabbits): 266 µg/kg; ED50 (anesthetized monkeys): 150 µg/kg
CC(=O)Oc1ccc(C[N+]2(C)C3CCC2CC(OC(=O)C2C4C=CC(C4)C2C(=O)OC2CC4CCC(C2)[N+]4(C)Cc2ccc(OC(C)=O)c(OC(C)=O)c2)C3)cc1OC(C)=O.[Br-].[Br-] (stereo not drawn) [bis[N-(3,4-diacetoxybenzyl)tropanium-3α-yl]trans-3,6-endomet] [bis[N-(3,4-diacetoxybenzyl)tropanium-3α-yl]trans-3,6-endomethylene-1,2,3,6-tetrahydrophthalate dibromide]	0.65 min	0.7 min	0.8 min	0.65 min	0.8 min	0.5 min	0.9 min	84 µg/kg	0.5 min	42%	0%	0%	0.9 min	0.65 min	0%	0%	0%	0%	120 µg/kg	197 µg/kg	VB (vagal block) [1, 10]: 32%; ΔBP (change in arterial blood pressure) [1, 10]: 0%; ΔH (change in heart rate) [1, 10]: 0%; ED50 (rabbits): 96 µg/kg; ED50 (anesthetized monkeys): 60 µg/kg; VB (vagal block) [2]: 30%; ΔBP (change in arterial blood pressure) [2]: −30%; ΔH (change in heart rate) [2]: −12%
